± gives the expanded uncertainty stated by the source.
How the values were obtained:
[1] = cn = amount concentration of the nth substance listed, in mol/dm3; details: 101 kPa, Liquid, Direct current cell with electrodes
[2] = relative permittivity at zero frequency (dimensionless); wn = mass fraction of the nth substance listed; details: 101 kPa, Liquid, Parallel plate capacitor
[3] = wn = mass fraction of the nth substance listed; details: 101 kPa, Liquid; for viscosity: Capillary tube (Ostwald / Ubbelohde) method; for mass density: Pycnometric method

N#C[S-].[Na+] [sodium thiocyanate] + CO
molar conductivity [S·m2/mol], [1]
Details	293.15 K	298.15 K	303.15 K
c1 = 0.0006986	0.00956 ± 1e-06	0.01035 ± 1e-06	0.01085 ± 1e-06
c1 = 0.001002	0.009407 ± 1e-06	0.010245 ± 1e-06	–
c1 = 0.001281	–	–	0.0106 ± 1e-06
c1 = 0.001537	0.009271 ± 1e-06	0.0101 ± 1e-06	0.010507 ± 1e-06
c1 = 0.001773	0.009192 ± 1e-06	0.010014 ± 1e-06	0.01045 ± 1e-06
c1 = 0.002195	–	0.009936 ± 1e-06	0.010314 ± 1e-06
c1 = 0.002385	0.008993 ± 1e-06	0.009871 ± 1e-06	0.010271 ± 1e-06
c1 = 0.002561	0.00895 ± 1e-06	0.009821 ± 1e-06	0.010214 ± 1e-06
c1 = 0.003164	0.008836 ± 1e-06	0.009707 ± 1e-06	0.01008 ± 1e-06
c1 = 0.003415	0.008784 ± 1e-06	0.009675 ± 1e-06	0.010014 ± 1e-06
c1 = 0.00364	–	0.009616 ± 1e-06	0.009979 ± 1e-06
c1 = 0.003842	0.00872 ± 1e-06	–	–
c1 = 0.004191	0.008664 ± 1e-06	0.009507 ± 1e-06	0.009864 ± 1e-06
c1 = 0.004343	0.00868 ± 1e-06	–	–
c1 = 0.004729	–	0.009414 ± 1e-06	–
c1 = 0.004838	0.008578 ± 1e-06	–	0.009735 ± 1e-06
c1 = 0.005035	0.008541 ± 1e-06	–	0.009713 ± 1e-06
c1 = 0.005489	–	0.009293 ± 1e-06	–
c1 = 0.005607	–	–	0.0096 ± 1e-06
c1 = 0.005662	0.008477 ± 1e-06	–	–
c1 = 0.005855	–	0.00925 ± 1e-06	–
c1 = 0.006014	–	0.009229 ± 1e-06	–
c1 = 0.006261	–	–	0.009493 ± 1e-06
c1 = 0.006336	0.008396 ± 1e-06	–	–

CO [methanol] + OCCO
w2 = 0
Details	mass density, 293.15 K [kg/m3]	mass density, 298.15 K [kg/m3]	mass density, 303.15 K [kg/m3]	relative permittivity at zero frequency, 293.15 K	relative permittivity at zero frequency, 298.15 K	relative permittivity at zero frequency, 303.15 K	viscosity, 293.15 K [mPa·s]	viscosity, 298.15 K [mPa·s]	viscosity, 303.15 K [mPa·s]
[2]	–	–	–	33.1 ± 0.1	32.7 ± 0.1	31.9 ± 0.1	–	–	–
[3]	791 ± 6	785.9 ± 6	781.4 ± 6	–	–	–	0.5814 ± 0.0076	0.5436 ± 0.0074	0.5112 ± 0.0073

OCCO [1,2-ethanediol] + CO
Details	mass density, 293.15 K [kg/m3]	mass density, 298.15 K [kg/m3]	mass density, 303.15 K [kg/m3]	relative permittivity at zero frequency, 293.15 K	relative permittivity at zero frequency, 298.15 K	relative permittivity at zero frequency, 303.15 K	viscosity, 293.15 K [mPa·s]	viscosity, 298.15 K [mPa·s]	viscosity, 303.15 K [mPa·s]
[2], w1 = 0.25	–	–	–	35.2 ± 0.1	34.7 ± 0.1	33.7 ± 0.1	–	–	–
[2], w1 = 0.5	–	–	–	37.3 ± 0.1	36.7 ± 0.1	35.6 ± 0.1	–	–	–
[2], w1 = 0.75	–	–	–	39.3 ± 0.1	38.7 ± 0.1	37.4 ± 0.1	–	–	–
[3], w1 = 0.25	864.7 ± 6	860.9 ± 6	858.6 ± 6	–	–	–	1.127 ± 0.01	1.03 ± 0.0098	0.9454 ± 0.0094
[3], w1 = 0.5	938.3 ± 6	933.8 ± 6	932.1 ± 6	–	–	–	2.269 ± 0.018	2.045 ± 0.017	1.81 ± 0.015
[3], w1 = 0.75	1023.4 ± 6	1019.6 ± 6	1017.3 ± 6	–	–	–	5.8 ± 0.042	4.904 ± 0.036	4.232 ± 0.032

Source: the NIST ThermoML archive (doi:10.1016/j.fluid.2009.03.002)
